In brackets after ≈: the same amount, converted by molar mass.

A short description of series [1]: Selectivity index, ratio of CC50 for African green monkey Vero cells to MIC for antimycobacterial activity against Mycobacterium tuberculosis H37Ra ATCC 25197. As to conditions: read-out: Selectivity Index. Format: toxicity.
Series [2] in a line: Cytotoxicity in African green monkey Vero cells assessed as reduction in cell viability incubated for 72 hrs by MTT assay. Format: cell-based. As to conditions: chlorocebus sabaeus.
Series [3] relates to Mycobacterium tuberculosis. The series can be described thus: Antimycobacterial activity against Mycobacterium tuberculosis H37Ra ATCC 25197 assessed as inhibition of bacterial cell growth incubated for 7 days by resazurin microtiter assay. The format is functional. As to conditions: H37Ra ATCC 25197, 168 h.
Series [4] has as its system Mycobacterium tuberculosis. The series can be described thus: Antimycobacterial activity against Mycobacterium tuberculosis H37Rv ATCC 27294 assessed as inhibition of bacterial cell growth incubated for 7 days by resazurin microtiter assay. The format is functional. As to conditions: H37Rv ATCC 27294, 168 h.

In the case of `O=C(NNC(=O)c1ccncc1)C(=O)Nc1ccccc1O`, the selectivity ratio in series [1] was found to be 3380. The CC50 at 72 h in series [2] came out at 1410 µM. Moreover, the results for the MIC in series [3] and in series [4] were 0.42 µM (≈ 0.126 µg/mL) and 3.3 µM (≈ 0.991 µg/mL), respectively.
`COC(=O)/C=C1\Nc2ncccc2OC1=O`: the MIC in series [3] is greater than 217 µM.
Take `O=C1Oc2ccccc2N/C1=C\C(=O)N1CCOCC1`: the selectivity ratio in series [1] was found to be 155. In addition, the CC50 at 72 h in series [2] stood at 1140 µM. In addition, the MIC in series [3] and in series [4] was 7.3 µM (≈ 2 µg/mL) throughout.
Consider `O=C(NNC(=O)c1ccncc1)C(=O)Nc1ccc(Cl)cc1O`, for which the selectivity ratio in series [1] was determined as 1560. The CC50 at 72 h in series [2] was found to be 1160 µM. Also, the figures for the MIC in series [3] and in series [4] were 0.75 µM (≈ 0.251 µg/mL) and 3.1 µM (≈ 1.04 µg/mL), respectively.
Taken in the same sequence, the figures for `O=C1Oc2ccccc2N/C1=C\C(=O)c1cccs1` were greater than 250, greater than 1840 µM, 7.3 µM (≈ 1.98 µg/mL) and 14.7 µM (≈ 3.99 µg/mL).
Consider `O=C1Oc2ccccc2N/C1=C\C(=O)c1ccccc1`, for which the selectivity ratio in series [1] was greater than 62. Moreover, the CC50 at 72 h in series [2] was greater than 942 µM. For the same molecule, the MIC in series [3] came out at 15 µM (≈ 3.98 µg/mL).
Regarding `COC(=O)/C=C1\Nc2cc3ccccc3cc2OC1=O`, in series [3], the MIC was greater than 238 µM.
`Cc1ccc(C(=O)/C=C2\Nc3ccccc3OC2=O)cc1`: the selectivity ratio in series [1] is 115. Further, the CC50 at 72 h in series [2] stood at 1650 µM. The MIC in series [3] is 14 µM (≈ 3.91 µg/mL).
With `COC(=O)/C=C1\Nc2ccccc2OC1=O`, the selectivity ratio in series [1] is greater than 125. In addition, the CC50 at 72 h in series [2] was greater than 2280 µM. Moreover, the minimum inhibitory concentration (MIC) in series [3] was found to be 18 µM (≈ 3.95 µg/mL); in series [4], 4.5 µM (≈ 0.986 µg/mL).
On to `O=C1/C(=C/c2ccccc2Cl)Oc2ccccc2N1Cc1ccccc1`, for which, in series [3], the minimum inhibitory concentration (MIC) stood at 177 µM (≈ 64 µg/mL).
With `O=C1Oc2ccccc2N/C1=C\C(=O)c1cccc(Cl)c1`, the selectivity ratio in series [1] is 120. For the same molecule, the CC50 at 72 h in series [2] amounted to 1610 µM. In addition, the MIC in series [3] turned out to be 13 µM (≈ 3.9 µg/mL).
On the same counts, the results for `O=C1Oc2ccccc2N/C1=C\C(=O)c1ccc(Cl)cc1` are 94, 1250 µM and 13 µM (≈ 3.9 µg/mL).
On the same counts, the results for `O=C1Oc2ccccc2N/C1=C\C(=O)c1ccc(-c2ccccc2)cc1` are greater than 30, greater than 366 µM and 12 µM (≈ 4.1 µg/mL).
Consider `COC(=O)/C=C1/Oc2ccccc2NC1=O`, for which, in series [3], the minimal inhibitory concentration (MIC) was 291 µM (≈ 63.8 µg/mL).
Still for that read-out and setting: under `COC(=O)/C=C1\Nc2cc(-c3ccccc3)ccc2OC1=O` stands 145 µM (≈ 42.8 µg/mL); under `COC(=O)/C=C1\Nc2ccccc2OC1O` (stereo unspecified), 289 µM (≈ 63.9 µg/mL).
In the case of `NNC(=O)c1ccncc1` [ISONIAZID], the selectivity ratio in series [1] is greater than 8000. Also, in series [2], the CC50 at 72 h is greater than 7300 µM. For the same molecule, the MIC worked out at 0.91 µM (≈ 0.125 µg/mL) in series [3] and 1.8 µM (≈ 0.247 µg/mL) in series [4].
On the same counts, the results for `O=C1Oc2ccccc2N/C1=C\C(=O)c1c[nH]c2ccccc12` are greater than 250, greater than 1640 µM, 6.5 µM (≈ 1.98 µg/mL) and 3.3 µM (≈ 1 µg/mL).
In the case of `O=C1Oc2ccccc2N/C1=C\C(=O)c1ccncc1`, the selectivity ratio in series [1] is greater than 125. Besides, the CC50 at 72 h in series [2] was greater than 1880 µM. Besides, the MIC in series [3] amounted to 15 µM (≈ 3.99 µg/mL).
Taken in the same sequence, the figures for `Cc1ccccc1C(=O)/C=C1\Nc2ccccc2OC1=O` were greater than 125, greater than 1790 µM and 14 µM (≈ 3.91 µg/mL).
For `CN1C(=O)/C(=C/c2ccccc2Cl)Oc2ccccc21`, in series [3], the MIC is 224 µM (≈ 64 µg/mL).
`COC(=O)CC1Nc2ccccc2OC1=O` (stereo unspecified): the selectivity ratio in series [1] was 43. In addition, the 50% cytotoxic concentration (CC50) at 72 h in series [2] is 1550 µM. In addition, the MIC in series [3] came to 36 µM (≈ 7.96 µg/mL).
Take `O=C1Oc2ccccc2N/C1=C\C(=O)c1ccccc1Cl`: in series [1], the selectivity ratio is 118. The CC50 at 72 h in series [2] worked out at 1570 µM. Moreover, in series [3], the MIC was determined as 13 µM (≈ 3.9 µg/mL).
Consider `CN1C(=O)/C(=C/c2ccccc2)Oc2ccccc21`, for which, in series [3], the MIC was found to be 127 µM (≈ 31.9 µg/mL).
`O=C(NNC(=O)c1ccncc1)C(=O)Nc1cc(Cl)ccc1O`: the selectivity ratio in series [1] is 3320. Besides, the CC50 at 72 h in series [2] came out at 1200 µM. For the same molecule, the MIC was determined as 0.37 µM (≈ 0.124 µg/mL) in series [3] and 3.1 µM (≈ 1.04 µg/mL) in series [4].
On to `COC(=O)/C=C1\Nc2ccc(Cl)cc2OC1=O`, for which the selectivity ratio in series [1] worked out at 202. For the same molecule, the CC50 at 72 h in series [2] stood at 1600 µM. In addition, the MIC in series [3] was 7.9 µM (≈ 2 µg/mL); in series [4], 3.9 µM (≈ 0.989 µg/mL).
`O=C1/C(=C/c2ccccc2)Oc2ccccc2N1Cc1ccccc1`: in series [3], the MIC worked out at 196 µM (≈ 64.2 µg/mL).
Still for that read-out and setting: with `O=C1Nc2ccccc2O/C1=C\c1ccccc1Cl` the figure was 238 µM (≈ 64.7 µg/mL).
For the molecule `Cc1cccc(C(=O)/C=C2\Nc3ccccc3OC2=O)c1`, the selectivity ratio in series [1] is greater than 125. Also, in series [2], the CC50 at 72 h was greater than 1790 µM. In series [3], the MIC was found to be 14 µM (≈ 3.91 µg/mL).
With `O=C1Nc2ccccc2O/C1=C\c1ccccc1`, in series [3], the MIC is 270 µM (≈ 64.1 µg/mL).
`COC(=O)/C=C1\Nc2cc(Cl)ccc2OC1=O`: in series [1], the selectivity ratio stood at 26. Also, in series [2], the CC50 at 72 h came out at 1630 µM. In addition, the MIC in series [3] came out at 63 µM (≈ 16 µg/mL); in series [4], 31 µM (≈ 7.86 µg/mL).

Source of the values: ChEMBL document CHEMBL4433266, “Design, synthesis and antimycobacterial activity of benzoxazinone derivatives and open-ring analogues: Preliminary data and computational analysis” (Bioorg Med Chem Lett, 2019).
